Patent EP0236939A1, “Derivatives of 5-acyloxy-13-beta-alkyl milbemicyne against parasites in animals and plants” (CIBA-GEIGY AG, priority 1986, dated 1987)
Like-named read-outs stand apart in the source and are kept apart here.

Legend:
[1] = test system: Haemonchus concortus und Trichostrongylus colubriformis; experiment: B-5 test on sheep infected with nematodes (worm egg count in faeces); assay type: in vivo, Schafe; conditions: 0,2 mg/kg, single dose by stomach tube or intraruminal injection; compared with untreated infected sheep
Protocol: Der Wirkstoff wird als Suspension formuliert mit einer Magensonde oder durch Injektion in den Pansen eines Schafes gegeben, das mit Haemonchus concortus und Trychostrongylus colubriformis künstlich infiziert worden ist. Pro Dosis werden 1 bis 3 Tiere verwendet. Jedes Schaf wird nur einmal mit einer einzigen Dosis behandelt, und zwar wahlweise mit 0,5 mg oder 0,2 mg/kg Körpergewicht. Die Evaluierung erfolgt durch Vergleich der Anzahl der vor und nach Behandlung im Kot der Schafe ausgeschiedenen Wurmeier.
Gleichzeitig und gleichartig infizierte aber unbehandelte Schafe dienen als Kontrolle.

Aphis craccivora = experiment: B-6 contact action on Aphis craccivora (sprayed pea seedlings); assay type: in vivo; conditions: 12,5 ppm, after 3 days; for mortality at 12.5 ppm: Aphis craccivora, 72 h, read-out: Abtötung
From the text: Erbsenkeimlinge, die mit sämtlichen Entwicklungsstadien der Laus infiziert sind, werden mit einer aus einem Emulsionskonzentrat hergestellten Wirkstofflösung besprüht, die wahlweise 50 ppm, 25 ppm oder 12,5 ppm Wirkstoff enthält. Nach 3 Tagen wird auf mehr als 80 % tote bzw. abgefallene Blattläuse ausgewertet. Nur bei dieser Wirkungshöhe wird ein Präparat als wirksam eingestuft.

Dermanyssus gallinae = experiment: B-9 miticidal action against Dermanyssus gallinae; assay type: in vivo; conditions: for Wirkung (Mortalität): 4320 min; for mortality at 100 ppm: Dermanyssus gallinae, 72 h, read-out: Wirkung (Mortalität)
Protocol: 2 bis 3 ml einer Testlösung (100, 10, 1 und 0,1 ppm Aktivsubstanz) werden in einen nach oben offenen Glasbehälter gegeben und ca. 200 Milben in unterschiedlichen Entwicklungsstadien in diesen Behälter eingesetzt. Der Glasbehälter wird mit einem Wattebausch verschlossen und 10 Minuten gleichmässig, bis zur vollständigen Benetzung der Milben geschüttelt. Danach wird der Behälter umgekehrt hingestellt, bis die überschüssige Testlösung von der Watte aufgesogen ist. Der Behälter wird erneut gekehrt und die behandelten […] zur Evaluierung der Wirksamkeit der Testsubstanzen drei Tage unter Laborbedingungen beobachtet, wobei die Mortalität als Massstab für Wirksamkeit herangezogen wird.

Spodoptera littoralis = experiment: B-1 insecticidal stomach-poison action on Spodoptera littoralis (sprayed cotton plants); assay type: in vivo; conditions: Wirkstoffkonzentration 3 ppm; nach 24 Stunden; L1 larvae on sprayed cotton plants
Protocol: Eingetopfte Baumwollpflanzen im 5-Blatt-Stadium werden mit einer acetonisch/wässrigen Versuchslösung besprüht, die 3, 12,5 oder 50 ppm der zu prüfenden Verbindung enthält.
Nach dem Antrocknen des Belags werden die Pflanzen mit ca. 30 Larven (L₁-Stadium) von Spodoptera littoralis besetzt. Pro Versuchsverbindung und pro Test-Spezies verwendet man zwei Pflanzen. Der Versuch wird bei ca. 24°C und 60 % relativer Luftfeuchtigkeit durchgeführt. Auswertungen und Zwischenauswertungen auf moribunde Tiere, Wachstum und Larven und Frassschäden erfolgen nach 24 Stunden, 48 Stunden und 72 Stunden.

[2] = test system: L₁-Larven von Lucilia sericata; experiment: B-3 action against L1 larvae of Lucilia sericata (larval culture medium); assay type: in vivo; conditions: after 4 days; for Wirkung (Mortalitätsrate): 100 ppm; for mortality at 100 ppm: Lucilia sericata, 96 h, read-out: Wirkung (Mortalitätsrate)
Protocol: 1 ml einer wässrigen Suspension der zu prüfenden Aktivsubstanz werden so mit 3 ml eines speziellen Larvenzuchtmediums bei ca. 50°C vermischt, dass ein Homogenisat von wahlweise 250 ppm oder 100 ppm Wirkstoffgehalt entsteht. In jede Reagenzglas-Probe werden ca. 30 Lucilia-Larven (L₁) eingesetzt. Nach 4 Tagen wird die Mortalitätsrate bestimmt. Verbindungen der Formel I aus den Tabellen, wie z.B. die Verbindungen Nr. 2.8, 2.17, 2.31, 2.33, 2.35, 2.43, 2.1, 2.18 und 2.45 erzielten mit 100 ppm eine Wirkung von 100 %.

Aedes aegypti = experiment: B-7 larvicidal action against Aedes aegypti; assay type: in vivo; conditions: 1,6 ppm; nach einem Tag
Protocol: Auf die Oberfläche von 150 ml Wasser, das sich in einem Behälter befindet, wird soviel einer 0,1 %igen acetonischen Lösung des Wirkstoffes pipettiert, dass Konzentrationen von wahlweise 10 ppm, 3,3 ppm und 1,6 ppm erhalten werden. Nach Verdunsten des Acetons wird der Behälter mit ca. 30-40 3 Tage alten Aedes-Larven beschickt. Nach 1, 2 und 5 Tagen wird die Mortalität geprüft.

[3] = test system: Boophilus microplus (Biarra-Stamm); experiment: B-4 acaricidal action against Boophilus microplus (injection into engorged female ticks, IR90); assay type: in vivo; conditions: injection of 1, 0,1 or 0,01 µg per tick; dose of the result not stated
Protocol: Auf einer PVC-Platte wird waagrecht ein Klebstreifen so befestigt, das darauf 10 mit Blut vollgesogene Zecken-Weibchen von Boophilus microplus (Biarra-Stamm) nebeneinander in einer Reihe mit dem Rücken aufgeklebt werden können. Jeder Zecke wird mit einer Injektionsnadel 1 µl einer Flüssigkeit injiziert, die eine 1:1-Mischung von Polyethylenglykol und Aceton darstellt und in der eine bestimmte Wirkstoffmenge von wahlweise 1, 0,1 oder 0,01 µg pro Zecke gelöst ist. Kontrolltiere erhalten eine wirkstofffreie Injektion. Nach der Behandlung werden die Tiere unter Normalbedingungen in einem Insektarium bei ca. 28°C und 80 % relativer Luftfeuchtigkeit gehalten, bis die Eiablage erfolgt und die Larven aus den Eiern der Kontrolltiere geschlüpft sind.
Die Aktivität einer geprüften Substanz wird mit der IR₉₀ bestimmt, d.h. es wird jene Wirkstoffdosis ermittelt, bei der noch nach 30 Tagen 9 von 10 Zeckenweibchen (= 90 %) Eier ablegen, die nicht schlupffähig sind.

[4] = test system: OP-sensible Tetranychus urticae; experiment: B-2 action against plant-damaging acarids, OP-sensitive Tetranychus urticae (sprayed bean plants); assay type: in vivo; conditions: Wirkstoffkonzentration 0,4 ppm; evaluated after seven days; all mite stages on bean plants
Protocol: Die Primärblätter von Bohnenpflanzen (Phaseolus vulgaris) werden 16 Stunden vor dem Versuch mit einem durch T. urticae infestierten, aus einer Massenzucht stammenden Blattstück belegt. Die so mit allen Milben-Stadien infestierten Pflanzen werden nach Entfernung des Blattstücks mit einer Versuchslösung bis zur Tropfnässe besprüht, die wahlweise 0,4 ppm oder 1,6 ppm der zu prüfenden Verbindung enthält. Die Temperatur in der Gewächshauskabine beträgt ca. 25°C.
Nach sieben Tagen wird unter dem Binokular auf Prozentsatz mobiler Stadien (Adulte und Nymphen) und auf vorhandene Eier ausgewertet.

Meloidogyne incognita = experiment: B-8 soil-nematicidal action against Meloidogyne incognita (tomato plants, root-knot index); assay type: in vivo; conditions: 0,002 % Aktivsubstanz based on soil volume; after 4 weeks; untreated infected controls = 100 %
Protocol: Eier von Meloidogyne incognita werden in Sand eingemischt. Dieses Gemisch wird dann in 200 ml fassende Tontöpfe eingebracht (5000 Eier pro Topf). Am gleichen Tag wird pro Topf eine 3 Wochen alte Tomatenpflanze gepflanzt und der formulierte Wirkstoff mittels Druckapplikation in die Töpfe hineingegeben (0,002 % Aktivsubstanz bezogen auf das Bodenvolumen). Die eingetopften Pflanzen werden nun bei einer Temperatur von 26±1°C und einer relativen Luftfeuchtigkeit von 60 % in einem Gewächshaus aufgestellt. Nach Ablauf von 4 Wochen erfolgt eine Evaluierung durch Untersuchung der Pflanzen auf Wurzelgallbildung nach dem sogenannten Wurzelgall-Index ("Knot Index")

[5] = 100 ppm, observed for three days

Row | Molecule | Nematodenbefall (Reduktion der Wurmeier im Kot) [1] | Abtötung (Spodoptera littoralis) | Abtötung sämtlicher Larven (Aedes aegypti) | mortality at 100 ppm [2] | mortality at 12.5 ppm (Aphis craccivora) | mortality at 100 ppm (Dermanyssus gallinae; [5]) | further results
1 | 5-O-(1,2,4-Trizaol-1-yl)acetyl-13β-methyl-milbemycin A₄-Zink(II)-Komplex [Verbindung 2.35] | keinen Nematodenbefall | vollständige Abtötung |  |  |  |  | Abtötung (Aphis craccivora): 100%; Wirkung (Mortalität) (Dermanyssus gallinae; [5]): 100%; Wirkung (Mortalitätsrate) [2]: 100%
2 | 5-O-(3,4-Dihydro-2H-pyran-2-yl)carboxyacetyl-13β-methyl-milbemycin A₄ [Verbindung 2.31] | keinen Nematodenbefall |  | vollständige Abtötung |  |  |  | Wirkung (Mortalität) (Dermanyssus gallinae; [5]): 100%; Wirkung (Mortalitätsrate) [2]: 100%
3 | CC[C@H]1O[C@]2(CC[C@@H]1C)C[C@@H]1C[C@@H](C/C=C(\C)[C@H](C)[C@@H](C)/C=C/C=C3\CO[C@@H]4[C@H](OC(C)=O)C(C)=C[C@@H](C(=O)O1)[C@]34O)O2 [Verbindung 2.1, 5-O-Acetyl-13β-methyl-milbemycin A₄] | keinen Nematodenbefall |  | vollständige Abtötung | 100% |  |  | 
4 | CC[C@H]1O[C@]2(CC[C@@H]1C)C[C@@H]1C[C@@H](C/C=C(\C)[C@H](C)[C@@H](C)/C=C/C=C3\CO[C@@H]4[C@H](OC(=O)CCl)C(C)=C[C@@H](C(=O)O1)[C@]34O)O2 [Verbindung 2.8, 5-O-Chloracetyl-13β-methyl-milbemycin A₄] | keinen Nematodenbefall | vollständige Abtötung | vollständige Abtötung | 100% | 100% | 100% | Wirkung (IR₉₀) [3]: sehr gute Wirkung; Abtötung [4]: vollständige Abtötung
5 | CC[C@H]1O[C@]2(CC[C@@H]1C)C[C@@H]1C[C@@H](C/C=C(\C)[C@H](C)[C@@H](C)/C=C/C=C3\CO[C@@H]4[C@H](OC(=O)COC(C)=O)C(C)=C[C@@H](C(=O)O1)[C@]34O)O2 [Verbindung 2.17, 5-O-Acetoxy-acetyl-13β-methyl-milbemycin A₄] | keinen Nematodenbefall |  | vollständige Abtötung | 100% | 100% | 100% | Abtötung [4]: vollständige Abtötung; Restbefall (Wurzelgallbildung) (Meloidogyne incognita): 0-10%
6 | CC[C@H]1O[C@]2(CC[C@@H]1C)C[C@@H]1C[C@@H](C/C=C(\C)[C@H](CC)[C@@H](C)/C=C/C=C3\CO[C@@H]4[C@H](OC(=O)COC(C)=O)C(C)=C[C@@H](C(=O)O1)[C@]34O)O2 [Verbindung 2.18, 5-O-Acetoxy-acetyl-13β-ethyl-milbemycin A₄] | keinen Nematodenbefall |  | vollständige Abtötung | 100% |  |  | Restbefall (Wurzelgallbildung) (Meloidogyne incognita): 0-10%
7 | CC[C@H]1O[C@]2(CC[C@@H]1C)C[C@@H]1C[C@@H](C/C=C(\C)[C@H](C)[C@@H](C)/C=C/C=C3\CO[C@@H]4[C@H](OC(=O)Cn5cncn5)C(C)=C[C@@H](C(=O)O1)[C@]34O)O2 [Verbindung 2.33, 5-O-(1,2,4-Triazol-1-yl)-acetyl-13β-methyl-milbemycin A₄] | keinen Nematodenbefall | vollständige Abtötung | vollständige Abtötung | 100% | 100% | 100% | Wirkung (IR₉₀) [3]: sehr gute Wirkung; Restbefall (Wurzelgallbildung) (Meloidogyne incognita): 0-10%
8 | CC[C@H]1O[C@]2(CC[C@@H]1C)C[C@@H]1C[C@@H](C/C=C(\C)[C@H](C)[C@@H](C)/C=C/C=C3\CO[C@@H]4[C@H](OC(=O)COC)C(C)=C[C@@H](C(=O)O1)[C@]34O)O2 [Verbindung 2.43, 5-O-Methoxyacetyl-13β-methyl-milbemycin A₄] | keinen Nematodenbefall | vollständige Abtötung | vollständige Abtötung | 100% | 100% |  | Abtötung [4]: vollständige Abtötung
9 | CC[C@H]1O[C@]2(CC[C@@H]1C)C[C@@H]1C[C@@H](C/C=C(\C)[C@H](C)[C@@H](C)/C=C/C=C3\CO[C@@H]4[C@H](OC(=O)COC(=O)c5cccc(Cl)c5)C(C)=C[C@@H](C(=O)O1)[C@]34O)O2 [Verbindung 2.44, 5-O-(3-Chlorbenzoyloxy)-acetyl-13β-methyl-milbemycin A₄] | keinen Nematodenbefall |  |  |  |  |  | 
10 | CC[C@H]1O[C@]2(CC[C@@H]1C)C[C@@H]1C[C@@H](C/C=C(\C)[C@H](CC)[C@@H](C)/C=C/C=C3\CO[C@@H]4[C@H](OC(=O)CCl)C(C)=C[C@@H](C(=O)O1)[C@]34O)O2 [Verbindung 2.45] | keinen Nematodenbefall |  |  | 100% |  |  | 
11 | CC[C@H]1O[C@]2(CC[C@@H]1C)C[C@@H]1C[C@@H](C/C=C(\C)[C@H](C)[C@@H](C)/C=C/C=C3\CO[C@@H]4[C@H](OC(=O)COCOC)C(C)=C[C@@H](C(=O)O1)[C@]34O)O2 [Verbindung 2.48] |  |  |  |  |  | 100% | 
12 | CC[C@H]1O[C@]2(CC[C@@H]1C)C[C@@H]1C[C@@H](C/C=C(\C)[C@H](C)[C@@H](C)/C=C/C=C3\CO[C@@H]4[C@H](OC(=O)COc5ccccc5)C(C)=C[C@@H](C(=O)O1)[C@]34O)O2 [Verbindung 2.53] | keinen Nematodenbefall |  |  |  |  |  | 
13 | CC[C@H]1O[C@]2(CC[C@@H]1C)C[C@@H]1C[C@@H](C/C=C(\C)[C@H](C)[C@@H](C)/C=C/C=C3\CO[C@@H]4[C@H](OC(=O)COS(=O)(=O)c5ccc(C)cc5)C(C)=C[C@@H](C(=O)O1)[C@]34O)O2 [Verbindung 2.55] |  |  |  |  |  |  | mortality at 100 ppm (Dermanyssus gallinae): 100%
